Laboratory results: patent publication US12643935B2, “PD-L1 binding peptides” (UNIVERSITY OF SOUTHERN CALIFORNIA, priority 2020, dated 2026)
Entries after “also recorded” stand apart in the source; their conditions may differ. Where two headings read alike, the source gives them in different places.

Legend:
[1] = biological target: T1, mouse PD-L1 (mPD-L1) (Mus musculus, UniProt Q9EP73); experiment: Radiolabeled [35S] peptide binding assay on mPD-L1; conditions: [35S]-labeled peptide
T1 construct: The expression construct for mPD-L1 consisted of its extracellular domain (from A18 to H239) with a methionine added to the N-terminus; hexahistidine tag (C); made in house; host or cells: E. coli BL21 (DE3)
Protocol: (§1) SPAM Peptide Selectively Binds to hPD-L1. SPAM was also tested for binding specificity towards mouse PD-L1 (mPD-L1) and human PD-L2 (hPD-L2) using radioactive binding assays. SPAM peptide mRNA was translated in vitro in the presence of [^35S]-methionine to generate [^35S]-labeled SPAM peptide.
(§2) [^35S]-labeled peptides were translated as described above by including 2 μCi labeled methionine (Perkin Elmer) per 10 pmol of template in the translation reaction. Each peptide was tested with a […] (for X9-library derived peptides) (SEQ ID NO: 11) or a […] (for X17-library derived peptides) (SEQ ID NO: 12) C-terminal sequence. […] The supernatant was removed and was counted. The beads were subsequently washed three times with 1 mL of blocking buffer and the washes were also counted. Finally, the beads were resuspended in 1 mL of blocking buffer and were counted separately. The ratio of the counts remaining on the beads to the total counts added to the binding reaction (the sum of the counts for supernatant, washes, and beads) was calculated to determine the percent bound.

[2] = biological target: T2, human PD-L2 (hPD-L2) (Homo sapiens, UniProt Q9BQ51); experiment: Radiolabeled [35S] peptide binding assay on hPD-L2*; conditions: [35S]-labeled peptide
T2 construct: The hPD-L2* vector included amino acids L20-T220, an Avi Tag and a hexahistidine tag; hexahistidine tag; made in house; host or cells: Expi293F
T2 sequence (Q9BQ51 20-220): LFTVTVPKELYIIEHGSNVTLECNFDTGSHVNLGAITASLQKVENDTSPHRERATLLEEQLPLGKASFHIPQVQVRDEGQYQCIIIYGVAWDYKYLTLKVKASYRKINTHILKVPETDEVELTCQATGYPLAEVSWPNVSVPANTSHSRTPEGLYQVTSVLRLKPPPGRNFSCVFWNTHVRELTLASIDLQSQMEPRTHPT
Protocol: as §1, §2

[3] = biological target: T3, hPD-L1/mPD-1 interaction (Homo sapiens, UniProt Q9NZQ7); experiment: ELISA/IP assay of hPD-L1/mPD-1 interaction; format: biochemical; conditions: 10 μM SPAM
T3 construct: designed from A18 to T239 with a methionine added to the N-terminus; hexahistidine tag (C); made in house; host or cells: E. coli BL21 (DE3)
Protocol: An ELISA-based activity assay was employed to measure the potency of SPAM peptide inhibition of the hPD-L1/PD-1 interaction (FIG. 4C-D). In this assay, biotinylated hPD-L1 was immobilized on streptavidin magnetic beads and incubated with various concentrations of SPAM peptide, followed by incubation with HA-tagged mPD-1 and detection with anti-HA secondary antibody.
For ELISA/IP assays, 20 L of MyOne™ Streptavidin T1 magnetic beads Dynabeads™ (Thermo Fisher Scientific) were loaded with 100 nM biotinylated hPD-L1 in assay buffer (20 mM HEPES-KOH pH 7.5, 150 mM NaCl, 0.2% (v/v) Tween-20, 1 mg/mL BSA and 50 μg/mL tRNA) at 4° C. The beads were subsequently washed and incubated with either DMSO or different concentrations of SPAM peptide (0.1, 1 or 10 μM) in the assay buffer for 1 h at 4° C. followed by adding HA-tagged mPD-1 (100 nM) for 1 h at 4° C. The samples were then washed and incubated with a 1:5,000 dilution of HRP conjugated anti-HA antibody (Pierce HA Antibody, Rockford. Il, USA) for 1 h at 4° C. The beads were washed again and developed with TMB Substrate Kit (Thermo Scientific) for 30 minutes and the reactions stopped by adding 100 L of […] sulfuric acid. The absorbance at 450 nm was measured on a Biotek Synergy H1 Hybrid Multi-Mode Microplate Reader.

[4] = biological target: T4, hPD-L1 (Homo sapiens, UniProt Q9NZQ7); experiment: Fluorescence polarization of ROX-labeled SPAM with hPD-L1; format: binding; set-up: designed from A18 to T239 with a methionine added to the N-terminus; hexahistidine tag (C); made in house
Protocol: To evaluate the affinity of SPAM for hPD-L1 and hPD-L1*, we measured the KD by fluorescence polarization. […] The resulting values were plotted against the concentration of hPD-L1 or hPD-L1* and fit to a one-site saturation binding model with GraphPad Prism.
A stock solution of hPD-L1 or hPD-L1* with a 5 μM starting concentration was prepared and serially diluted to concentrations ranging from 5 μM to 2.4 nM. […] The fluorescence polarization of each sample was measured on a Synergy H4 Hybrid Multi-Mode Microplate Reader. Each measurement was carried out in triplicate and the mean value was calculated. The values were fit to a one-site saturation binding model in GraphPad Prism to obtain the corresponding equilibrium dissociation constants.
Target sequence in this assay (Q9NZQ7 with tags, fused parts or gaps): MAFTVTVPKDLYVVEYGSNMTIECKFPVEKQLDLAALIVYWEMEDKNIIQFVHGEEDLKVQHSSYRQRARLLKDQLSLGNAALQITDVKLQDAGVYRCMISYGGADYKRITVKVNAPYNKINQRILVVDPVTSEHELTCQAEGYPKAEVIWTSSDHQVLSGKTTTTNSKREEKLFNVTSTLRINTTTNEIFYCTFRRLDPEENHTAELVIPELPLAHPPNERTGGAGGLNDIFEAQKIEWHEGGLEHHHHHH

[5] = biological target: T4, hPD-L1; experiment: Radiolabeled [35S] peptide binding assay on immobilized hPD-L1; set-up: designed from A18 to T239 with a methionine added to the N-terminus; hexahistidine tag (C); made in house; conditions: hPD-L1 on streptavidin agarose
Protocol: as §2
Target sequence in this assay (Q9NZQ7 with tags, fused parts or gaps): as above

[6] = biological target: T4, hPD-L1; experiment: Radiolabeled [35S] peptide binding assay on glycosylated hPD-L1*; set-up: The hPD-L1* vector included amino acids A18-T239, an Avi Tag and a hexahistidine tag; hexahistidine tag; made in house; host or cells: Expi293F
Protocol: as §1, §2
Target sequence in this assay (Q9NZQ7 18-239): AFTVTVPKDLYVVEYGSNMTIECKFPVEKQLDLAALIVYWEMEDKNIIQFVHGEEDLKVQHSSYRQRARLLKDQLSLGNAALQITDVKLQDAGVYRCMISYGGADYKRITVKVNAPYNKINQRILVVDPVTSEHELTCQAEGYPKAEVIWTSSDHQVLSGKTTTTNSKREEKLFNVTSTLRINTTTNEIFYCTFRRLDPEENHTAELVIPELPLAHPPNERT

T1 sequence (Q9EP73 with tags, fused parts or gaps): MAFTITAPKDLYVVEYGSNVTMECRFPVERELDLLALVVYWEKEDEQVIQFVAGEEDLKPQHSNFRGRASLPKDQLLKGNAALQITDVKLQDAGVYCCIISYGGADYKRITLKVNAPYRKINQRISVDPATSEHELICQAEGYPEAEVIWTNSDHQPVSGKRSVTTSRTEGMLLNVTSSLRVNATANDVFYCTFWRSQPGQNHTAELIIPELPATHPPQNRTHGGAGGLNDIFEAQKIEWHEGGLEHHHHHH
T3 sequence (Q9NZQ7 with tags, fused parts or gaps): as the sequence (Q9NZQ7 with tags, fused parts or gaps) above

## C#CC[C@H](NC(=O)CNC(=O)[C@H](CO)NC(=O)[C@H](C)NC(=O)[C@H](Cc1ccc(O)cc1)NC(=O)[C@H](Cc1c[nH]cn1)NC(=O)[C@H](CC(C)C)NC(=O)[C@@H](NC(=O)[C@H](Cc1c[nH]c2ccccc12)NC(=O)[C@H](Cc1ccccc1)NC(=O)[C@H](CCCCN)NC(=O)[C@H](CC(N)=O)NC(=O)[C@H](CC(C)C)NC(=O)[C@@H](NC(=O)[C@H](Cc1c[nH]cn1)NC(=O)[C@H](CC(=O)O)NC(=O)[C@H](CC(C)C)NC(=O)[C@H](Cc1ccccc1)NC(=O)[C@@H](NC(=O)[C@@H]1CCCN1C(=O)[C@@H](N)CCSC)[C@@H](C)CC)[C@@H](C)CC)[C@@H](C)CC)C(N)=O (stereo in doubt) [SPAM]
[1]
  binding to mPD-L1: not pulled-down; also recorded: essentially no binding; also recorded: no significant binding
[2]
  binding to hPD-L2: no significant binding; also recorded: essentially no binding
[3]
  inhibition of mPD-1 binding to hPD-L1: almost completely disrupted; also recorded: almost completely inhibits
[4]; non-glycosylated hPD-L1, T=21° C., 100 nM ROX-SPAM, read-out: dissociation constant (KD) for hPD-L1
  Kd: 119 nM
[4]; range over glycosylated and non-glycosylated hPD-L1, read-out: KD for hPD-L1
  Kd: 67 to 119 nM
[5]
  [35S]-labeled peptide pull-down by immobilized hPD-L1: efficiently pulled-down
[6]
  [35S]-labeled peptide capture by hPD-L1*: captured
